Test results taken from PubChem BioAssay AID1963423 (Molecular Pharmacology Branch, DTP, NCI, 2024).
Values joined by “and” are separate entries in the source; they are usually repeats but may differ in a detail not shown here. Identical values can stand only once.

System: 439559-082-T-J2-PDC complex spheroid growth
Test: Anticancer human tumor 439559-082-T-J2-PDC patient-derived colon adenocarcinoma cell line growth inhibition [Asc]
Details: for viability, T/C: stronger effect = lower value
How it was run: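 Stromal components (HUVEC and hMSC) are co-assembled with the cancer cells into multicellular spheroids. Drugs are then added singly or paired, at concentrations falling by half-log increments from a clinically achievable maximum, capped at 10 microM without known Cmax.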

[1] = curve of first compound, second compound 0.1 µM
[2] = curve of first compound, second compound 0.316 µM
[3] = curve of first compound, second compound 1 µM
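Note: spheroids exposed to agents for 7 days starting day 3 after seeding.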
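Throughout, for viability, T/C: percent of DMSO vehicle control viability with 100% = vehicle.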

Work on C#Cc1c(F)ccc2cc(O)cc(-c3ncc4c(N5CC6CCC(C5)N6)nc(OCC56CCCN5CC(F)C6)nc4c3F)c12 (stereo not given) + CNC(C)C(=O)NC1CN(S(=O)(=O)c2cccc(S(=O)(=O)N3CCC4CCC(C(=O)NC(c5ccccc5)c5ccccc5)N4C(=O)C(NC(=O)C(C)NC)C3)c2)CCC2CCC(C(=O)NC(c3ccccc3)c3ccccc3)N2C1=O yielded an IC50 (curve of first compound, second compound 0.00316 µM) of 2 µM, an IC50 (curve of first compound, second compound 0.01 µM) of 2.62 µM and an IC50 (curve of first compound, second compound 0.0316 µM) of 1.66 µM. It also gave an IC50 [1] of 1.91 µM, an IC50 [2] of 1.03 µM and an IC50 [3] of 0.269 µM. The viability, T/C (second compound 0.00316 µM, first compound 0.0316 µM) was 103%, the viability, T/C (second compound 0.00316 µM, first compound 0.1 µM) was 76.9% and the viability, T/C (second compound 0.00316 µM, first compound 0.316 µM) was 66.3%. For the same compound, the viability, T/C (second compound 0.00316 µM, first compound 1 µM) was 58.9%, the viability, T/C (second compound 0.00316 µM, first compound 3.16 µM) was 46.9% and the viability, T/C (second compound 0.00316 µM, first compound 10 µM) was 38.9%. It also gave a viability, T/C (second compound 0.01 µM, first compound 0.0316 µM) of 104%, a viability, T/C (second compound 0.01 µM, first compound 0.1 µM) of 82% and a viability, T/C (second compound 0.01 µM, first compound 0.316 µM) of 66.1%. The viability, T/C (second compound 0.01 µM, first compound 1 µM) was 62.9%, the viability, T/C (second compound 0.01 µM, first compound 3.16 µM) was 48.5% and the viability, T/C (second compound 0.01 µM, first compound 10 µM) was 39.8%. It also gave a viability, T/C (second compound 0.0316 µM, first compound 0.0316 µM) of 95%, a viability, T/C (second compound 0.0316 µM, first compound 0.1 µM) of 94.3% and a viability, T/C (second compound 0.0316 µM, first compound 0.316 µM) of 66.8%. For the same compound, the viability, T/C (second compound 0.0316 µM, first compound 1 µM) was 54.9%, the viability, T/C (second compound 0.0316 µM, first compound 3.16 µM) was 50% and the viability, T/C (second compound 0.0316 µM, first compound 10 µM) was 37.5%. It also gave a viability, T/C (second compound 0.1 µM, first compound 0.0316 µM) of 91.8%, a viability, T/C (second compound 0.1 µM, first compound 0.1 µM) of 73.8% and a viability, T/C (second compound 0.1 µM, first compound 0.316 µM) of 65.8%. For the same compound, the viability, T/C (second compound 0.1 µM, first compound 1 µM) was 60.1%, the viability, T/C (second compound 0.1 µM, first compound 3.16 µM) was 45.3% and the viability, T/C (second compound 0.1 µM, first compound 10 µM) was 34.3%. It also gave a viability, T/C (second compound 0.316 µM, first compound 0.0316 µM) of 84.7%, a viability, T/C (second compound 0.316 µM, first compound 0.1 µM) of 78.5% and a viability, T/C (second compound 0.316 µM, first compound 0.316 µM) of 59.4%. For the same compound, the viability, T/C (second compound 0.316 µM, first compound 1 µM) was 51.4%, the viability, T/C (second compound 0.316 µM, first compound 3.16 µM) was 40% and the viability, T/C (second compound 0.316 µM, first compound 10 µM) was 30.1%. The viability, T/C (second compound 1 µM, first compound 0.0316 µM) was 66%, the viability, T/C (second compound 1 µM, first compound 0.1 µM) was 55.2% and the viability, T/C (second compound 1 µM, first compound 0.316 µM) was 50.7%. For the same compound, the viability, T/C (second compound 1 µM, first compound 1 µM) was 40%, the viability, T/C (second compound 1 µM, first compound 3.16 µM) was 29% and the viability, T/C (second compound 1 µM, first compound 10 µM) was 21.6%.
For NC(=O)C(=Cn1cnc(-c2cc(C(F)(F)F)cc(C(F)(F)F)c2)n1)c1cncnc1 + CCN1C(C(=O)NC23CCC(C(=O)O)(CC2)CC3)C(c2cccc(Cl)c2F)C2(C(=O)Nc3cc(Cl)ccc32)C12CCCCC2, the IC50 (curve of first compound, second compound 0.03 µM) was > 0.3 µM, the IC50 (curve of first compound, second compound 0.0949 µM) was > 0.3 µM and the IC50 (curve of first compound, second compound 0.3 µM) was > 0.3 µM. The IC50 (curve of first compound, second compound 0.949 µM) was > 0.3 µM, the IC50 (curve of first compound, second compound 3 µM) was > 0.3 µM and the viability, T/C (second compound 0.03 µM, first compound 0.000949 µM) was 96.7%. For the same compound, the viability, T/C (second compound 0.03 µM, first compound 0.003 µM) was 103%, the viability, T/C (second compound 0.03 µM, first compound 0.00949 µM) was 103% and the viability, T/C (second compound 0.03 µM, first compound 0.03 µM) was 90.9%. It also gave a viability, T/C (second compound 0.03 µM, first compound 0.0949 µM) of 95.2%, a viability, T/C (second compound 0.03 µM, first compound 0.3 µM) of 81.9% and a viability, T/C (second compound 0.0949 µM, first compound 0.000949 µM) of 98.5%. For the same compound, the viability, T/C (second compound 0.0949 µM, first compound 0.003 µM) was 113%, the viability, T/C (second compound 0.0949 µM, first compound 0.00949 µM) was 107% and the viability, T/C (second compound 0.0949 µM, first compound 0.03 µM) was 83.2%. For the same compound, the viability, T/C (second compound 0.0949 µM, first compound 0.0949 µM) was 89.4%, the viability, T/C (second compound 0.0949 µM, first compound 0.3 µM) was 83.3% and the viability, T/C (second compound 0.3 µM, first compound 0.000949 µM) was 106%. It also gave a viability, T/C (second compound 0.3 µM, first compound 0.003 µM) of 102%, a viability, T/C (second compound 0.3 µM, first compound 0.00949 µM) of 105% and a viability, T/C (second compound 0.3 µM, first compound 0.03 µM) of 88.2%. The viability, T/C (second compound 0.3 µM, first compound 0.0949 µM) was 93.2%, the viability, T/C (second compound 0.3 µM, first compound 0.3 µM) was 80.8% and the viability, T/C (second compound 0.949 µM, first compound 0.000949 µM) was 105%. The viability, T/C (second compound 0.949 µM, first compound 0.003 µM) was 104%, the viability, T/C (second compound 0.949 µM, first compound 0.00949 µM) was 110% and the viability, T/C (second compound 0.949 µM, first compound 0.03 µM) was 90.3%. For the same compound, the viability, T/C (second compound 0.949 µM, first compound 0.0949 µM) was 88.6%, the viability, T/C (second compound 0.949 µM, first compound 0.3 µM) was 86.8% and the viability, T/C (second compound 3 µM, first compound 0.000949 µM) was 87.3%. The viability, T/C (second compound 3 µM, first compound 0.003 µM) was 93.2%, the viability, T/C (second compound 3 µM, first compound 0.00949 µM) was 96.6% and the viability, T/C (second compound 3 µM, first compound 0.03 µM) was 87.5%. The viability, T/C (second compound 3 µM, first compound 0.0949 µM) was 75% and the viability, T/C (second compound 3 µM, first compound 0.3 µM) was 67.7%.
In the case of CCN1C(C(=O)NC23CCC(C(=O)O)(CC2)CC3)C(c2cccc(Cl)c2F)C2(C(=O)Nc3cc(Cl)ccc32)C12CCCCC2 (stereo not given), the viability, T/C (compound 0.00949 µM) is reported as 105% and 100%, the viability, T/C (compound 0.03 µM) is reported as 101% [middle of 15 runs] and the viability, T/C (compound 0.0949 µM) is reported as 99.9% [middle of 15 runs]. The viability, T/C (compound 0.3 µM) was 96.8% [middle of 15 runs], the viability, T/C (compound 0.949 µM) was 102% [middle of 15 runs] and the viability, T/C (compound 3 µM) was 92.1% [middle of 15 runs]. The IC50 (compound alone, run of 10/11/2022) was > 3 µM and the IC50 (curve of compound) was > 3 µM.
In the case of Cc1nc(N2CCC3(CC2)COC(C)C3N)c(CO)nc1Sc1ccnc(N)c1Cl (stereo not given) + Cc1c(S(C)(=O)=O)c(-c2cc(F)cc(N3CCN(c4ccc(NS(=O)(=O)c5ccc(NC(CCN6CCC(C(=O)OCCCP(=O)(O)O)CC6)CSc6ccccc6)c(S(=O)(=O)C(F)(F)F)c5)cc4)CC3)c2)c(-c2ccc(Cl)cc2)n1C(C)C, the IC50 [1] is reported as > 3 µM, the IC50 [2] is reported as > 3 µM and the IC50 [3] is reported as > 3 µM. For the same compound, the IC50 (curve of first compound, second compound 3.16 µM) was > 3 µM, the IC50 (curve of first compound, second compound 10 µM) was 2.75 µM and the viability, T/C (second compound 0.1 µM, first compound 0.00949 µM) was 109%. For the same compound, the viability, T/C (second compound 0.1 µM, first compound 0.03 µM) was 115%, the viability, T/C (second compound 0.1 µM, first compound 0.0949 µM) was 100% and the viability, T/C (second compound 0.1 µM, first compound 0.3 µM) was 82.6%. For the same compound, the viability, T/C (second compound 0.1 µM, first compound 0.949 µM) was 86.5%, the viability, T/C (second compound 0.1 µM, first compound 3 µM) was 73.4% and the viability, T/C (second compound 0.316 µM, first compound 0.00949 µM) was 96.4%. It also gave a viability, T/C (second compound 0.316 µM, first compound 0.03 µM) of 107%, a viability, T/C (second compound 0.316 µM, first compound 0.0949 µM) of 103% and a viability, T/C (second compound 0.316 µM, first compound 0.3 µM) of 84.5%. It also gave a viability, T/C (second compound 0.316 µM, first compound 0.949 µM) of 77.9%, a viability, T/C (second compound 0.316 µM, first compound 3 µM) of 72.4% and a viability, T/C (second compound 1 µM, first compound 0.00949 µM) of 89.5%. The viability, T/C (second compound 1 µM, first compound 0.03 µM) was 97.5%, the viability, T/C (second compound 1 µM, first compound 0.0949 µM) was 98.2% and the viability, T/C (second compound 1 µM, first compound 0.3 µM) was 76.4%. It also gave a viability, T/C (second compound 1 µM, first compound 0.949 µM) of 63%, a viability, T/C (second compound 1 µM, first compound 3 µM) of 70.4% and a viability, T/C (second compound 3.16 µM, first compound 0.00949 µM) of 84%. The viability, T/C (second compound 3.16 µM, first compound 0.03 µM) was 95.7%, the viability, T/C (second compound 3.16 µM, first compound 0.0949 µM) was 92.1% and the viability, T/C (second compound 3.16 µM, first compound 0.3 µM) was 63.6%. It also gave a viability, T/C (second compound 3.16 µM, first compound 0.949 µM) of 65.5%, a viability, T/C (second compound 3.16 µM, first compound 3 µM) of 56.7% and a viability, T/C (second compound 10 µM, first compound 0.00949 µM) of 74.3%. For the same compound, the viability, T/C (second compound 10 µM, first compound 0.03 µM) was 75%, the viability, T/C (second compound 10 µM, first compound 0.0949 µM) was 72.7% and the viability, T/C (second compound 10 µM, first compound 0.3 µM) was 60.2%. For the same compound, the viability, T/C (second compound 10 µM, first compound 0.949 µM) was 60.3% and the viability, T/C (second compound 10 µM, first compound 3 µM) was 49.1%.
